Assay results as given in ChEMBL document CHEMBL1201862, “PubChem BioAssay data set” (2004).
Where “and” joins values, the source holds several entries; their conditions need not be identical. Identical values can stand only once. Calls of active or inactive are those of the source.

What was measured:
[1] = HEK293T cell cytotoxicity, dose response, cytotoxicity control for HIV Vif inhibitor project, cherry-picks (AID 652208); assay type: functional, cell-based
[2] = cytotoxicity in KRAS-transformed pancreatic duct cells, primary screen, cell-based, fluorescence, HTS (AID 431); assay type: functional; conditions: Homo sapiens;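 also: cell line used: HPDE-C7K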
[3] = target: T1, Heat shock factor protein 1 (Mus musculus, UniProt P38532); test: HSF1 potentiators in luciferase reporter cells, confirmation, cell-based, NIH3T3, luminescence, dose retest (AID 435004); assay type: functional;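 also: stress induced by proteasome inhibitor MG132 added 30 min after compound; luciferase reporter driven by HSF1 response element in NIH3T3 cells; actives raise luminescence as potentiators of the MG132 stress response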
T1 sequence (P38532 whole entry): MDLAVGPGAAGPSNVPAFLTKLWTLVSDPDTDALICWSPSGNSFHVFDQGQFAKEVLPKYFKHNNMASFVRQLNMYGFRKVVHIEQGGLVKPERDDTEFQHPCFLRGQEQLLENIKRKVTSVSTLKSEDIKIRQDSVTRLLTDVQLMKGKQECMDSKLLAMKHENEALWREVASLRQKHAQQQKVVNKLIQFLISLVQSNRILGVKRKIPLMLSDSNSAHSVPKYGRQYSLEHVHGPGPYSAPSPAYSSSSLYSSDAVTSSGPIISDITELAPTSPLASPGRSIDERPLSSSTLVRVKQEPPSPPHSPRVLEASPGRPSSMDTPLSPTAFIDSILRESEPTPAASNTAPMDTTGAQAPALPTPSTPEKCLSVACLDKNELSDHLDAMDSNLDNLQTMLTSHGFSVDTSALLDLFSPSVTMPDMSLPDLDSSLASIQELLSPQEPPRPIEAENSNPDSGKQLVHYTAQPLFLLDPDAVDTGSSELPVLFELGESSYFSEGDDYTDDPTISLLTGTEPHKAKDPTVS

[4] = cytotoxicity in HPDE-C7 cells, cell-based, fluorescence, HTS (AID 430); assay type: functional; conditions: Homo sapiens
Bcl-2-related protein A1 [5] = target: T2, Bcl-2-related protein A1 (Mus musculus, UniProt Q07440); test: Bfl-1 inhibitors blocking BH3 peptide binding, confirmation, biochemical, TR-FRET, mouse Bfl-1 (AID 621);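 also: TR-FRET binding of GST-Bfl-1 to FITC-labelled Bid peptide via terbium antibody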
T2 sequence (Q07440 whole entry): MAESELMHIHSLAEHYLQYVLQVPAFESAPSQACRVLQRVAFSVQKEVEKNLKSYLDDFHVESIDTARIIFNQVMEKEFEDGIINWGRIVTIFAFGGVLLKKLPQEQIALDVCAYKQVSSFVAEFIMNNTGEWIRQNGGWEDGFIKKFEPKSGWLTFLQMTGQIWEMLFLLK

Bcl-2-related protein A1 [6] = target: T2, Bcl-2-related protein A1; test: Bfl-1 binding inhibitors, SAR follow-up, biochemical, fluorescence polarization (AID 1070)
[7] = growth suppression of PTEN-null colon cells, dose response, cell-based, HCT116 PTEN knockout (AID 1047); assay type: functional;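 also: HCT116 colon tumor cells with PTEN knocked out; cells exposed to compound for 60 hours before readout; potency for loss of cell viability measured by luminescence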
Bcl-2-related protein A1 [8] = target: T2, Bcl-2-related protein A1; test: Bfl-1 inhibitors, primary screen, biochemical, fluorescence polarization, FITC-Bid, mouse (AID 432)
[9] = target: Glyceraldehyde-3-phosphate dehydrogenase (Homo sapiens, UniProt P04406)
[10] = Counterscreen for antagonists of the human trace amine associated receptor 1 (hTAAR1): Fluorescence-based cell-based high throughput dose response assay to identify nonselective Ga16 antagonists.; assay type: functional
[11] = Counterscreen for […] of the human trace amine associated receptor 1 (TAAR1): Fluorescence-based cell-based high throughput dose response assay to identify nonselective Ga16 agonists.; assay type: functional
[12] = target: T3, Trace amine-associated receptor 1 (Homo sapiens, UniProt Q96RJ0); test: Counterscreen for antagonists of the human trace amine associated receptor 1 (hTAAR1): Fluorescence-based cell-based high throughput dose response assay to identify TAAR1 Agonists.; assay type: functional
T3 sequence (Q96RJ0 whole entry): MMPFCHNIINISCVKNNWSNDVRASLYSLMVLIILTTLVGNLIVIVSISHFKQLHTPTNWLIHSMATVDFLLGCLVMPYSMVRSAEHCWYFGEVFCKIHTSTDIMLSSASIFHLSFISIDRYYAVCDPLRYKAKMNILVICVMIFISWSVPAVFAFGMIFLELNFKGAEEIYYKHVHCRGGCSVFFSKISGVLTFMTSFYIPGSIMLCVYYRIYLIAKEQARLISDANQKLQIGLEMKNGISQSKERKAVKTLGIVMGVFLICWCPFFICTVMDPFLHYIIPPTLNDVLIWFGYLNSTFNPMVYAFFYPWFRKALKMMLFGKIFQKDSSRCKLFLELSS

[13] = target: T3, Trace amine-associated receptor 1; test: Fluorescence-based cell-based high throughput dose response assay to identify antagonists of the human trace amine associated receptor 1 (TAAR1).; assay type: functional
[14] = Luminescence Cell-Based Dose Confirmation HTS to Identify Activators of 5'UTR Stem-Loop Driven Alpha-Synuclein mRNA Translation in H4 Neuroglioblastoma Cells. [Related pubchem assays: 1829 (Project Summary), 1814 (Primary HTS)]; assay type: functional
[15] = target: T4, Neuropeptide Y receptor type 2 (Homo sapiens, UniProt P49146); assay type: functional, cell-based;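 also: HEK293 cells expressing the receptor and a CNG channel; stimulus was NPY near EC95 followed by isoproterenol to raise cAMP; antagonist potency measured as restoring cAMP signal that NPY suppresses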
T4 sequence (P49146 whole entry): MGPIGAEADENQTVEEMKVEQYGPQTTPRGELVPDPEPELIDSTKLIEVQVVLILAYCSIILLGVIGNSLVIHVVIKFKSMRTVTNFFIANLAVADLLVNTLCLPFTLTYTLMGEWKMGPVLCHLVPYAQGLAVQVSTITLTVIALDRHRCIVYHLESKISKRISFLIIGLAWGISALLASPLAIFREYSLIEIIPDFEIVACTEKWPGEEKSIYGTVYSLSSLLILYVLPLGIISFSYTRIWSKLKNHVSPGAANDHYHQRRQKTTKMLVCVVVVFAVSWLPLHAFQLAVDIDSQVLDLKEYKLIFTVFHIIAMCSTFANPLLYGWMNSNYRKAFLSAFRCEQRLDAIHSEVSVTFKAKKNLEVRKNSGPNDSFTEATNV

[16] = target: SWI/SNF-related matrix-associated actin-dependent regulator of chromatin subfamily A member 2 (Homo sapiens, UniProt P51531); test: Luminescence-based cell-based high throughput dose response assay to identify activators of the function of SWI/SNF related, matrix associated, actin dependent regulator of chromatin, subfamily a, member 2 (SMARCA2, BRM).; assay type: functional
[17] = Luminescence Cell-Based Dose Response HTS to Identify Activators of Luciferase Translation or Activity in H4 […] Cells. [Related pubchem assays: 1829 (Project Summary), 1814 (Primary HTS)]; assay type: functional
H4 = test: Luminescence Cell-Based Dose Response HTS to Identify Activators of 5'UTR Stem-Loop Driven Prion Protein mRNA Translation in H4 Neuroglioblastoma Cells. [Related pubchem assays: 1829 (Project Summary), 1814 (Primary HTS)]; assay type: functional; conditions: Homo sapiens
[18] = target: T5, Neuropeptide Y receptor type 1 (Homo sapiens, UniProt P25929); assay type: functional;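 also: HEK293 cells with a CNG channel challenged with NPY then isoproterenol; potency as antagonist that reverses NPY suppression of cAMP signal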
T5 sequence (P25929 whole entry): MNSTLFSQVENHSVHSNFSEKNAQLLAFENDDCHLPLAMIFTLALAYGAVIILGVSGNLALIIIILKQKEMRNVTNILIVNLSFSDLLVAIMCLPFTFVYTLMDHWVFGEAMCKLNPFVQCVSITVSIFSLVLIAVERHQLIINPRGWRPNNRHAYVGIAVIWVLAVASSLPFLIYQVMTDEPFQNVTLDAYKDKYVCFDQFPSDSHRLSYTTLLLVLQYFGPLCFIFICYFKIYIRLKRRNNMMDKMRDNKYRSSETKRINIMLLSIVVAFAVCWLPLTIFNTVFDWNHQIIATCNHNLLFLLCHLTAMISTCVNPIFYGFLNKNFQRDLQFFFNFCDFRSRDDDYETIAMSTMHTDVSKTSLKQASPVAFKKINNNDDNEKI

cells [19] = assay type: functional, cell-based
[20] = Counterscreen for activators of the function of SWI/SNF related, matrix associated, actin dependent regulator of chromatin, subfamily a, member 2 (SMARCA2, BRM): Luminescence-based cell-based high throughput dose response assay to identify non-selective compounds using the VP16 reporter assay.; assay type: functional
cells [21] = assay type: functional, cell-based; remark: listed apart in the source
[22] = target: T6, Sentrin-specific protease 1 (Homo sapiens, UniProt Q9P0U3); test: potency of human SENP1 inhibitors, dose response, biochemical, kinetic FRET (AID 651697); assay type: functional; conditions: read-out: IC50_Mean
[23] = Luminescence Cell-Based Dose Retest to Confirm Inhibitors of Cancer Stem Cells. [Related pubchem assays (depositor defined):AID2717, AID2721]; assay type: functional; conditions: Homo sapiens
[24] = target: T6, Sentrin-specific protease 1; test: Dose response confirmation of small molecule inhibitors of the catalytic domain of the SUMO protease, SENP1 in a FRET assay.; assay type: functional; conditions: read-out: IC50_Mean
[25] = target: Transitional endoplasmic reticulum ATPase (Homo sapiens, UniProt P55072, C522A); test: C522A mutant p97 ATPase inhibitors, dose response, counter-screen for p97 inhibitor project, biochemical, luminescence (AID 1544)
[26] = target: Transitional endoplasmic reticulum ATPase (Homo sapiens, UniProt P55072); test: p97 ATPase inhibitors, dose response, biochemical (AID 1534)
[27] = target: T7, Methionyl-tRNA synthetase, putative (Trypanosoma brucei brucei, UniProt Q38C91); assay type: functional, Trypanosoma brucei brucei strain 927/4 GUTat10.1
[28] = Counterscreen for inhibitors of Trypanosoma brucei methionyl tRNA synthetase (MetRS): Luminescence-based cell-based high throughput dose response assay to identify compounds that are cytotoxic to Jurkat human T lymphocyte cells.; assay type: functional
[29] = target: Long-chain-fatty-acid--AMP ligase FadD28 (Mycobacterium tuberculosis, UniProt P9WQ59); test: Fluorescence polarization aasay to screen for inhibitors that compete for the binding of FadD28 to a bisubstrate Measured in Biochemical System Using Plate Reader - 2147-01_Inhibitor_Dose_CherryPick_Activity.; assay type: functional, Mycobacterium tuberculosis H37Rv
[30] = target: T7, Methionyl-tRNA synthetase, putative; assay type: functional, Trypanosoma brucei brucei strain 927/4 GUTat10.1; remark: listed apart in the source

T6 sequence (Q9P0U3 whole entry): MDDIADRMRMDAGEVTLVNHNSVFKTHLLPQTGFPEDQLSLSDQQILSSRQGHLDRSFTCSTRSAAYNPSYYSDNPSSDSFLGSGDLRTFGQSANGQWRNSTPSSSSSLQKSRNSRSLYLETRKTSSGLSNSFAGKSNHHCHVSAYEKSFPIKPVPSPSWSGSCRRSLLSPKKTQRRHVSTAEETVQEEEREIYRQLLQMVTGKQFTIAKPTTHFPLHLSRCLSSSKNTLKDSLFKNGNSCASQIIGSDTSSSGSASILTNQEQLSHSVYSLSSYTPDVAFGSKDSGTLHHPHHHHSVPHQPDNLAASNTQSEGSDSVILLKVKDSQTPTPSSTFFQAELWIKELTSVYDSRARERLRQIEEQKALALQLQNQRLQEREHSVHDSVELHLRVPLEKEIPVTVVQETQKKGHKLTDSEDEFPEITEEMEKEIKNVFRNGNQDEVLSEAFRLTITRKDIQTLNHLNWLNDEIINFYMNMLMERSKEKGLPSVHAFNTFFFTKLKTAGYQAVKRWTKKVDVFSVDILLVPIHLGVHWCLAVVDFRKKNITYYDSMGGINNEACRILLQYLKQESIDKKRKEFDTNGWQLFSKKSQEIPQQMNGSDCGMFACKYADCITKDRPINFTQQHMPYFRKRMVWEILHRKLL
T7 sequence (Q38C91 whole entry): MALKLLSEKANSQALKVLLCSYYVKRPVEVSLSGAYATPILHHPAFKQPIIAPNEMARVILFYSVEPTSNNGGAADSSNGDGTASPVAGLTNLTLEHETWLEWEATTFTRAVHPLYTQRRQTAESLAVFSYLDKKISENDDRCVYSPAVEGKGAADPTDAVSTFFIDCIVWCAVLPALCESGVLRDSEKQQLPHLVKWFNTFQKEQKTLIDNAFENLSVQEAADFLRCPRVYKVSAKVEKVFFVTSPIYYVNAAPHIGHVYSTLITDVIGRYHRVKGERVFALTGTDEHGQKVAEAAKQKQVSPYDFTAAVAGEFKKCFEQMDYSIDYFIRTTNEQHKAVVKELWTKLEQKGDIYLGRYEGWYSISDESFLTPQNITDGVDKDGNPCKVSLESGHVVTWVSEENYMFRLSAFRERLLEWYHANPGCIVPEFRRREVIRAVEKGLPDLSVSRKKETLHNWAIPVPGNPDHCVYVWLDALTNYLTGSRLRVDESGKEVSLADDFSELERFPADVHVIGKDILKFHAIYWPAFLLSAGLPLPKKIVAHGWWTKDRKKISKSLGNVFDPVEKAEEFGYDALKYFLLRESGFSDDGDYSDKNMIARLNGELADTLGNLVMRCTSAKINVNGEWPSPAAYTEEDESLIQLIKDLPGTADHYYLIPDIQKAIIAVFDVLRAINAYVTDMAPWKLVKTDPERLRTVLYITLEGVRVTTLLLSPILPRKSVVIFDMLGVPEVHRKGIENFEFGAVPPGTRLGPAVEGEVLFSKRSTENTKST
Transitional endoplasmic reticulum ATPase (Homo sapiens, UniProt P55072), sequence (P55072 whole entry): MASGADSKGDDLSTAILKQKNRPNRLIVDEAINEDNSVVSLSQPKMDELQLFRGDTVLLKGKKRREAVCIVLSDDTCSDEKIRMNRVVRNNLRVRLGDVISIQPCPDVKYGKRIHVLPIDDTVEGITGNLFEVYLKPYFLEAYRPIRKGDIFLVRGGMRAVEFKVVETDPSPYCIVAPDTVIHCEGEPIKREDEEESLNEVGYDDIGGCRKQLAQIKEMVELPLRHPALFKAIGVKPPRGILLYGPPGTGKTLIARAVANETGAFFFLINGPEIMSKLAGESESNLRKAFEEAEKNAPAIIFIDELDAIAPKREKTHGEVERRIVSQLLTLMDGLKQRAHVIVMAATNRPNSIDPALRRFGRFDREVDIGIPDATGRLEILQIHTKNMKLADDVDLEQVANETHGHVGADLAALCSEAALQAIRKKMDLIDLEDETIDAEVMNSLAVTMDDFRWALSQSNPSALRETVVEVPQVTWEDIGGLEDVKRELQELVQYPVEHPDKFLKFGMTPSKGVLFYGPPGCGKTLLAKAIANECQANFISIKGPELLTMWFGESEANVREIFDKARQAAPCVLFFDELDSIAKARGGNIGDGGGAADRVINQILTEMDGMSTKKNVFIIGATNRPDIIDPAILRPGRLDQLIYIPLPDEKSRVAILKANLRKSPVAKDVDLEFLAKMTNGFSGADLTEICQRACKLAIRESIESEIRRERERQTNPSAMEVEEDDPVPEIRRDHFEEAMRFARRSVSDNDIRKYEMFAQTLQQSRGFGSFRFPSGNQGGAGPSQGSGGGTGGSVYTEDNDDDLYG
Glyceraldehyde-3-phosphate dehydrogenase, sequence (P04406 whole entry): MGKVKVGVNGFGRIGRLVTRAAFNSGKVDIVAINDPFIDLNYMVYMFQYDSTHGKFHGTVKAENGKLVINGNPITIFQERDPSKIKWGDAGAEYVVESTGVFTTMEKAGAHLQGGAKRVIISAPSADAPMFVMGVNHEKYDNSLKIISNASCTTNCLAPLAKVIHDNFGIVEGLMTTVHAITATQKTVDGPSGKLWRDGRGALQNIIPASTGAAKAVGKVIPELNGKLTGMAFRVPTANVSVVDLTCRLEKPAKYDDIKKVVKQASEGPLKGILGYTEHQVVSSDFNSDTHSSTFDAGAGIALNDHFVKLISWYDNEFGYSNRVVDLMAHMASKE
Long-chain-fatty-acid--AMP ligase FadD28, sequence (P9WQ59 whole entry): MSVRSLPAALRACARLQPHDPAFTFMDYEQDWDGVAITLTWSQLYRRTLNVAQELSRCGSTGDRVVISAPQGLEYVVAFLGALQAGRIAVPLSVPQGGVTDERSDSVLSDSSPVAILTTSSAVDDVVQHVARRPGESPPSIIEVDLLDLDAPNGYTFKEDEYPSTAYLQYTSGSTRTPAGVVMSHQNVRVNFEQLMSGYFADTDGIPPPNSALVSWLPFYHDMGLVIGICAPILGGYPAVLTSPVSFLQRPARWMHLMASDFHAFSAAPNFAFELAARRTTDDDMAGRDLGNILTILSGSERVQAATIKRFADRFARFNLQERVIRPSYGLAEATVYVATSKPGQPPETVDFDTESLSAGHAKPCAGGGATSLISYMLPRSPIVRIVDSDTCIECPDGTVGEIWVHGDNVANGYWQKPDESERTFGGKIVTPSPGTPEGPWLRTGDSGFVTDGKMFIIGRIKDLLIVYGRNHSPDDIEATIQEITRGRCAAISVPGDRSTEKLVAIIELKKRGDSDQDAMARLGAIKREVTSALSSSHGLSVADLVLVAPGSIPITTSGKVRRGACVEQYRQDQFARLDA
Transitional endoplasmic reticulum ATPase (Homo sapiens, UniProt P55072, C522A), sequence (P55072 2-806 C522A limits assumed): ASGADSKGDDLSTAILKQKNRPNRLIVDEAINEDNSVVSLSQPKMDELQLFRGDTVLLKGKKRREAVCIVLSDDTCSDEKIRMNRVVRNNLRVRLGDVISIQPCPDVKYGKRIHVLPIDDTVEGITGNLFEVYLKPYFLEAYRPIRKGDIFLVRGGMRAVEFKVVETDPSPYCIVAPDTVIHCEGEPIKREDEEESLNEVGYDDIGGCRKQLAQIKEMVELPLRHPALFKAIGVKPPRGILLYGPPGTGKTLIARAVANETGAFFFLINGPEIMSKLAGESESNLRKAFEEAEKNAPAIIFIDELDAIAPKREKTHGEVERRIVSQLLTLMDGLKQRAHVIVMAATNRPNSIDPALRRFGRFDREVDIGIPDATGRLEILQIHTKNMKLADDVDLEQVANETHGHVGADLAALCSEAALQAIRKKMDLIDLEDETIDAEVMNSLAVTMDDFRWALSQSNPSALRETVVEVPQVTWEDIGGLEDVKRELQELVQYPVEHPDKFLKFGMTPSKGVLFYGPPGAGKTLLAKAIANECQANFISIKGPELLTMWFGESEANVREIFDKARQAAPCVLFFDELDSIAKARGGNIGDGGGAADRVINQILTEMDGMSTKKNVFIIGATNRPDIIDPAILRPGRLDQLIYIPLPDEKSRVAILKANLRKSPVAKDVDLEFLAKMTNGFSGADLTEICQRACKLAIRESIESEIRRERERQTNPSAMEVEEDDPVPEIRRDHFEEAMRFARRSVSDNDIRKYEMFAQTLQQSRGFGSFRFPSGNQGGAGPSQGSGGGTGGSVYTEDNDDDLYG

Q: For `COc1ccc(-c2cc(C(F)(F)F)nc(S(C)(=O)=O)n2)cc1OC`, which AC50 [1] is on record?
A: 13.2 µM (active)

Q: What about the EC50 [2] of the same compound?
A: 3.47 µM (active)

Q: What about the EC50 [3] of the same compound?
A: 5.47 µM (active)

Q: What about the EC50 [4] of the same compound?
A: 4.49 µM (active)

Q: And the IC50 (Bcl-2-related protein A1 [5])?
A: 12.7 µM (active) and 4.51 µM (active)

Q: What about the IC50 (Bcl-2-related protein A1 [6]) of the same compound?
A: 23.2 µM (active)

Q: What about the EC50 [7] of the same compound?
A: 32.1 µM (active)

Q: What about the IC50 (Bcl-2-related protein A1 [8]) of the same compound?
A: 25.4 µM (active)

Q: What about the IC50 [9] of the same compound?
A: > 100 µM (not active)

Q: What does the source list for `O=C(CCN1C(=O)C2C3C=CC(C3)C2C1=O)NCCc1ccccc1` (stereo unspecified)?
A: IC50 [10]: > 29.9 µM (inactive); EC50 [11]: > 29.9 µM (inactive); EC50 [12]: > 29.9 µM (inactive); IC50 [13]: > 29.9 µM (inactive)

Q: Which EC50 [14] does the source give for `O=c1c2ccccc2nc2c3ccccc3c(NCCN3CCOCC3)nn12` here?
A: > 120 µM (not active)

Q: What about the IC50 [15] of the same compound?
A: > 35 µM (not active)

Q: And the EC50 [16]?
A: > 10.1 µM (inactive)

Q: What about the EC50 [17] of the same compound?
A: 18 µM (active)

Q: And the EC50 (H4)?
A: > 120 µM (inconclusive)

Q: And the IC50 [18]?
A: 4.38 µM (active)

Q: And the EC50 (cells [19])?
A: > 350 µM (not active)

Q: What about the EC50 [20] of the same compound?
A: > 91.2 µM (inactive)

Q: What about the EC50 (cells [21]) of the same compound?
A: > 350 µM (not active)

Q: With `Oc1ccc(Cl)cc1/C=C(\Cl)c1nc(O)c2ccc(Cl)cc2n1` as the compound, how does the IC50 [22] read?
A: 0.654 µM (active)

Q: And the AC50 [23]?
A: 1.32 µM (active)

Q: What about the IC50 [24] of the same compound?
A: 0.428 µM (active)

Q: What about the IC50 [25] of the same compound?
A: > 50 µM (not active)

Q: And the IC50 [26]?
A: > 50 µM (not active)

Q: Which IC50 [27] does the source give for `O=C(NN1C(=O)/C(=C/c2nc3ccccc3[nH]2)SC1=S)c1ccc(Cl)cc1` here?
A: 119 µM (inactive)

Q: And the IC50 [28]?
A: 83.3 µM (inactive)

Q: What about the AC50 [29] of the same compound?
A: 1.13 µM (active)

Q: What about the IC50 [30] of the same compound?
A: 82.6 µM (inactive)
